Test results reported in US20210380548A1, “Fused [1,2,4]Thiadiazine Derivatives Which Act as KAT Inhibitors of the MYST Family” (CTxT Pty Limited, priority 2017, published 2021).

Key:
TIP60-KAT5 [1] = target: T1, TIP60-KAT5 (Homo sapiens, UniProt Q92993); test: Acetyltransferase biochemical assay (AlphaScreen), KAT5; conditions: Table 1 (TIP60-KAT5); 0.4 μM Acetyl coenzyme A, histone H4, 10 nM enzyme
T1 construct: encoding amino acid residues 2 to 461 (Uniprot Q92993-2) of human KAT5 isoform; made in house; host or cells: E. coli BL21 DE3

MOZ-KAT6A = target: T2, MOZ-KAT6A (Homo sapiens, UniProt Q92794, A567V); test: Revised Acetyltransferase Biochemical Assay, KAT6A; conditions: Table 8 (MOZ-KAT6A), 1 μM Acetyl coenzyme A
T2 construct: encoding amino acid residues 507 to 778 (Uniprot Q92794-1) of human KAT6A; made in house; host or cells: E. coli BL21 DE3

HBO-KAT7 [2] = target: T3, HBO-KAT7 (Homo sapiens, UniProt O95251); test: Revised Acetyltransferase Biochemical Assay, KAT7; conditions: Table 9 (HBO-KAT7), 1 μM Acetyl coenzyme A
T3 construct: encoding amino acid residues 325 to 611 (Uniprot 095251-1) of human KAT7; made in house; host or cells: E. coli BL21 DE3 RIL

TIP60-KAT5 [3] = target: T1, TIP60-KAT5; test: Revised Acetyltransferase Biochemical Assay, KAT5; conditions: 10 nM KAT5, 1 μM AcCoA, 100 nM histone H4, 90 min
QKF-KAT6B = target: T4, QKF-KAT6B (Homo sapiens, UniProt Q8WYB5); test: Revised Acetyltransferase Biochemical Assay, KAT6B; conditions: 8 nM KAT6B, 1 μM AcCoA, 100 nM histone H3.1, 90 min
T4 construct: purchased SignalChem K315-381BG
Text: KAT6B was obtained from SignalChem, catalog ID: K315-381BG

[4] = system: histone H3K23 acetylation (KATE mediated) in U2OS cells; test: Histone H3 Lysine 23 Acetylation Biomarker Assay (U2OS); assay type: cell-based; conditions: Homo sapiens, 96 well, 24 hours incubation
Experimental: Compounds may be tested for their ability to inhibit acetylation of the histone H3K23 marker, which is KATE mediated, in the following assay:
The cell line U2OS was seeded at a density of 9,000 cells per well in 96 well optical quality tissue culture plates in RPMI medium and 10% foetal bovine serum, and allowed to adhere for 24 hours under standard culture conditions (37 degree Celsius, 5% CO2). At the end of this period the medium was aspirated. Compound dilutions prepared in DMSO were added to medium, with negative control wells reserved for treatment with DMSO only and 100% inhibition positive controls receiving a potent inhibitor compound (e.g. cas 2055397-28-7, benzoic acid, 3-fluoro-5-(2-pyridinyl)-, 2-[(2-fluorophenyl)sulfonyl]hydrazide) (Baell, J., Nguyen, H. N., Leaver, D. J., Cleary, B. L., Lagiakos, H. R., Sheikh, B. N., Thomas. T. J., Aryl sulfonohydrazides, WO2016198507A1, 2016) at 10 μM concentration and 200 μL transferred to the cells. After incubation for 24 hours, the cells were fixed with 3.7% formaldehyde in PBS for 20 minutes at room temperature, washed (5×5 minutes) with phosphate buffer saline containing 0.1% Tween 20 and blocked with Odyssey blocking buffer (LI-COR, Lincoln, Nebr.) containing 0.1% TritonX100. Anti-H3K23ac specific antibody (Abcam ab177275) in Odyssey blocking buffer containing 0.1% Tween 20 was added and incubated for 16 hours at 4 degree Celsius. After washing (as above), a secondary antibody labelled with Alexa647 dye (LifeTechnologies) and Hoechst 33342 (1 μg/mL, SigmaAldrich) were added for 1 hour incubation. Plates were washed as previously and read on a PerkinElmer Phenix high content imaging platform. Using a Columbus image analysis pipeline, individual nuclei were located by Hoechst 33342 stain and the acetylation level was calculated from the Alexa647-related intensity in the same area. The resulting mean intensity per cell was directly converted to percent inhibition relative to controls on the same plate and the data fitted against a four-parameter logistic model to determine the 50% inhibitory concentration (IC50).

MOF-KAT8 [5] = target: T5, MOF-KAT8 (Homo sapiens, UniProt Q9H7Z6); test: Revised Acetyltransferase Biochemical Assay, KAT8
T5 sequence (Q9H7Z6 177-447): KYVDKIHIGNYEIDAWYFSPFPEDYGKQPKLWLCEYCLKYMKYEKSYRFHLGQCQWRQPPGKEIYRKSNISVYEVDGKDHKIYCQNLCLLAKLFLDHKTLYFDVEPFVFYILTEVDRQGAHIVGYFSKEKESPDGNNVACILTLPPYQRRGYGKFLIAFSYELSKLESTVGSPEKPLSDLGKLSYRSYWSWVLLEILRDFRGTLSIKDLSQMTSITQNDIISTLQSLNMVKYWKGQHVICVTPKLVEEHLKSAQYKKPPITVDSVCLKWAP

HBO-KAT7 [6] = target: T3, HBO-KAT7; test: Acetyltransferase biochemical assay (AlphaScreen), KAT7; conditions: Table 3 (HBO-KAT7); 0.4 μM Acetyl coenzyme A, histone H3.1, 40 nM enzyme
MOF-KAT8 [7] = target: T5, MOF-KAT8; test: Acetyltransferase biochemical assay (AlphaScreen), KAT8; conditions: Table 4 (MOF-KAT8); 0.4 μM Acetyl coenzyme A, histone H4, 20 nM enzyme
[8] = system: histone H3 Lysine 14 acetylation (HBO1 mediated) in U2OS cells; test: Histone H3 Lysine 14 Acetylation Biomarker Assay (384-well, U2OS); assay type: cell-based; conditions: Homo sapiens, serum free medium, 24 hours incubation
Experimental: Compounds may be tested for their ability to inhibit acetylation of the histone H3 Lysine 14 (which is HBO1 mediated) marker in the following assay:
The cell line U2OS was seeded at a density of 3,000 cells per well in 384-well optical quality tissue culture plates in RPMI medium supplemented with 10% foetal bovine serum and 10 mM Hepes. The cells were allowed to adhere for 24 hours under standard culture conditions (37 degree Celsius, 5% CO2). At the end of this period the cells were washed with serum free medium. Compound dilutions prepared in DMSO were added to the serum free medium, with negative control wells reserved for treatment with DMSO only and 100% inhibition positive controls receiving a potent inhibitor compound (e.g. (Z)-4-fluoro-N-((3-hydroxyphenyl)sulfonyl)-5-methyl-[1,1′-biphenyl]-3-carbohydrazonic acid) at 10 μM concentration. After incubation for 24 hours, the cells were fixed with 4% formaldehyde in PBS for 15 minutes at room temperature, washed with phosphate buffer saline and blocked with blocking buffer containing 0.2% TritonX100 and 2% BSA. Anti-H3K14ac specific antibody (Cell Signalling Technologies) in blocking buffer was added and incubated overnight at 4 degree Celsius. After washing, a secondary antibody labelled with AlexaFluor 488 dye (ThermoFisher) and Hoechst 33342 (1 μg/mL, Life Technologies) were added for 2 hours incubation at room temperature. Plates were washed and read on a
PerkinElmer Opera HCS high content imaging platform. Using a Columbus image analysis pipeline, individual nuclei were located by Hoechst 33342 stain and the acetylation level was calculated from the AlexaFluor 488-related intensity in the same area. The resulting mean intensity per cell was converted to percent inhibition relative to controls on the same plate and the data fitted against a four-parameter logistic model to determine the 50% inhibitory concentration (IC50).

[9] = system: histone H2A.Z Lysine 7 acetylation (TIP60 mediated) in U2OS cells; test: H2A.Z Lysine 7 Acetylation Biomarker Assay (384-well, U2OS); assay type: cell-based; conditions: Homo sapiens, serum free medium, 24 hours incubation
Experimental: Compounds may be tested for their ability to inhibit the histone H2A.Z Lysine 7 acetylation marker (which is TIP60 mediated) in the following assay:
The cell line U2OS was seeded at a density of 3,000 cells per well in 384-well optical quality tissue culture plates in RPMI medium supplemented with 10% foetal bovine serum and 10 mM Hepes. The cells were allowed to adhere for 24 hours under standard culture conditions (37 degree Celsius, 5% CO2). At the end of this period the cells were washed with serum free medium. […] After incubation for 24 hours, the cells were fixed with 4% formaldehyde in PBS for 15 minutes at room temperature, washed with phosphate buffer saline and blocked with blocking buffer containing 0.2% TritonX100 and 2% BSA. Anti-H2A.ZK7ac specific antibody (Abcam) in blocking buffer was added and incubated overnight at 4 degree Celsius. After washing, a secondary antibody labelled with AlexaFluor 488 dye (ThermoFisher) and Hoechst 33342 (1 μg/mL, Life Technologies) were added for 2 hours incubation at room temperature. Plates were washed and read on a PerkinElmer Opera HCS high content imaging platform. Using a Columbus image analysis pipeline, individual nuclei were located by Hoechst 33342 stain and the acetylation level was calculated from the AlexaFluor 488-related intensity in the same area. The resulting mean intensity per cell was converted to percent inhibition relative to controls on the same plate and the data fitted against a four-parameter logistic model to determine the 50% inhibitory concentration (IC50).

T2 sequence (Q92794 507-778 A567V limits assumed): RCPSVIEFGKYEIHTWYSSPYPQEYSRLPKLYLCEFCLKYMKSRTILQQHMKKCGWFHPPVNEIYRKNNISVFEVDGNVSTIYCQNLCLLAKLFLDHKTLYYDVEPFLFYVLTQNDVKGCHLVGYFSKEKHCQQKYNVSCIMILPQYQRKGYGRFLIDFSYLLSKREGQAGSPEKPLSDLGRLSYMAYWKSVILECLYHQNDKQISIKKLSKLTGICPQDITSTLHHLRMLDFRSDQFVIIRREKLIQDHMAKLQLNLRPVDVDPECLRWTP
T4 sequence (Q8WYB5 whole entry): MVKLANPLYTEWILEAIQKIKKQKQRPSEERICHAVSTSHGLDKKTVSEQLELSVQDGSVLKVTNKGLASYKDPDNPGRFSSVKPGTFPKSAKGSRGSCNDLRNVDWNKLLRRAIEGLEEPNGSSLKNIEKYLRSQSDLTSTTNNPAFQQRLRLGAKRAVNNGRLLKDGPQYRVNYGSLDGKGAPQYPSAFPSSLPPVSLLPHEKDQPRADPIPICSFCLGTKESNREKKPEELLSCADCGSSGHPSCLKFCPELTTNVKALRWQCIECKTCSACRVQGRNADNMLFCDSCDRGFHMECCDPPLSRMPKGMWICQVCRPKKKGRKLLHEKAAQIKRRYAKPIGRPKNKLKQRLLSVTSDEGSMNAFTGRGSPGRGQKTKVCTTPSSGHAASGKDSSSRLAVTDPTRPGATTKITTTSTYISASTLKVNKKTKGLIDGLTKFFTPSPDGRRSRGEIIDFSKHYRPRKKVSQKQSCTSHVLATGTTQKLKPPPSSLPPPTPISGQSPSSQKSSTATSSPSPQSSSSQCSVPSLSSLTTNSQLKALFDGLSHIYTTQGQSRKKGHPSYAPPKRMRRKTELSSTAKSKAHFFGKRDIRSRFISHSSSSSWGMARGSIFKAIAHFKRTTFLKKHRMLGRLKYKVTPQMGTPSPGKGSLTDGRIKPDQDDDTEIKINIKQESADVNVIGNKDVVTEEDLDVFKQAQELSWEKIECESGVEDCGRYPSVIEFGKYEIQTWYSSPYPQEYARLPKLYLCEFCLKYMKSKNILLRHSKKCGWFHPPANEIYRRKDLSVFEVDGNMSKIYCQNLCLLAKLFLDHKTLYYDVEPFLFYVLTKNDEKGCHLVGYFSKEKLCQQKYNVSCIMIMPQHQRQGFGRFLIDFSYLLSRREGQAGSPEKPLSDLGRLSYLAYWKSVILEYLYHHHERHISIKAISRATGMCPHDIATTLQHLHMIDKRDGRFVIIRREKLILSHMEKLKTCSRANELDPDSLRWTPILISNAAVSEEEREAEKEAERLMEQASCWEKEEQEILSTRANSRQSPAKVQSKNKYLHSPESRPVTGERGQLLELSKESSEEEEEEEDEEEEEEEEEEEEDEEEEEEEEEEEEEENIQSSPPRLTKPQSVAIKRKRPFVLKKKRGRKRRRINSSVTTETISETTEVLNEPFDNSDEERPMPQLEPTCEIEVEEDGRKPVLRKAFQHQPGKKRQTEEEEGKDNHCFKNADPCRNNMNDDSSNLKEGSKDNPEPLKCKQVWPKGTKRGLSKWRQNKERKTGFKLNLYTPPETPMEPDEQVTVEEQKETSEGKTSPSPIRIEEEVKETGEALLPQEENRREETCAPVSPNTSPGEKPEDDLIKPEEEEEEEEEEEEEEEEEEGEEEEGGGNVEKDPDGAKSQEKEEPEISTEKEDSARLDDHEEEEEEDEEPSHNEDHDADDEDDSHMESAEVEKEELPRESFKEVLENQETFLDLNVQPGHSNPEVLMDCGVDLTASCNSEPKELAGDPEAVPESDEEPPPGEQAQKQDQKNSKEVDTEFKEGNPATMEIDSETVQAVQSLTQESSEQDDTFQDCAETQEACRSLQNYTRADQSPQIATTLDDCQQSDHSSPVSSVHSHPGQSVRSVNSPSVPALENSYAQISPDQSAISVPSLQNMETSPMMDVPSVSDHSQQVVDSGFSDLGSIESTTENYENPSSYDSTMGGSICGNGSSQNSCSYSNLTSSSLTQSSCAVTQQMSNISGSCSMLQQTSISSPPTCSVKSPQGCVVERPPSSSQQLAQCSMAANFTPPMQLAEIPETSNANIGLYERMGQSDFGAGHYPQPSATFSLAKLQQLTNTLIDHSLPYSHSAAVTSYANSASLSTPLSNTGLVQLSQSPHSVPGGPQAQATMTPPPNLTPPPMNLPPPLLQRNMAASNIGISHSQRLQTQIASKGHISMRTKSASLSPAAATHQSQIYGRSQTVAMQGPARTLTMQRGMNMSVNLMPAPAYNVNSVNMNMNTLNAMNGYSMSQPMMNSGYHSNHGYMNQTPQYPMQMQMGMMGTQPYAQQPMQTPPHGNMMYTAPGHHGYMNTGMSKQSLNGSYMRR
T3 sequence (O95251 with tags, fused parts or gaps): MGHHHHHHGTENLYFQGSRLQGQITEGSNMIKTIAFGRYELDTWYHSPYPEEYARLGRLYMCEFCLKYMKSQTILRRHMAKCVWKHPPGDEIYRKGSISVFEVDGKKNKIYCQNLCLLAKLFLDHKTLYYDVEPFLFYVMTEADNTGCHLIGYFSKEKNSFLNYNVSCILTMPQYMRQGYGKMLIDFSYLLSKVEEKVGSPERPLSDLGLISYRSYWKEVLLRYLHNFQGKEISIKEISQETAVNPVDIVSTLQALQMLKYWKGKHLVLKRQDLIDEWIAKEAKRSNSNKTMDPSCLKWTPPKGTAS
T1 sequence (Q92993 2-461 isoform Q92993-2): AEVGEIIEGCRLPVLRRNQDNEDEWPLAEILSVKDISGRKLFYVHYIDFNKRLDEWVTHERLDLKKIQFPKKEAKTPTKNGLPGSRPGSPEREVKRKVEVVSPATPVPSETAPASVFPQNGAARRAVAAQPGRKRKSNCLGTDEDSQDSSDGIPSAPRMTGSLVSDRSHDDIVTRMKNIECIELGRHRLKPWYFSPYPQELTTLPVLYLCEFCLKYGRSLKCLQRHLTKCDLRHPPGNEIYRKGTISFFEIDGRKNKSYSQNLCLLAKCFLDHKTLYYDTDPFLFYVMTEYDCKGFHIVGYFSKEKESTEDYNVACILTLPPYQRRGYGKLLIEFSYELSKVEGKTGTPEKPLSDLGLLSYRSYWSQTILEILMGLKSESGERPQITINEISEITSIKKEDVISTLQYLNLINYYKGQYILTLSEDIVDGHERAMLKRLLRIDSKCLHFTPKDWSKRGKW

Row | Structure (SMILES) | IC50 (TIP60-KAT5 [1]) | IC50 (MOZ-KAT6A) | IC50 (HBO-KAT7 [2]) | IC50 (TIP60-KAT5 [3]) | IC50 (QKF-KAT6B) | IC50 [4] | IC50 (MOF-KAT8 [5]) | IC50 (HBO-KAT7 [6]) | IC50 (MOF-KAT8 [7]) | IC50 [8] | IC50 [9]
1 | O=C(NCC(c1ccccc1)c1ncc[nH]1)C1=Nc2ccccc2S(=O)(=O)N1 (stereo not drawn) [Example 113] | > 125 µM | 99000 nM | 6410 nM | > 125 µM | > 125 µM | > 10 µM | > 125 µM | – | – | – | –
2 | O=C(NCC(F)(c1ccccc1)c1ncco1)C1=Nc2ccc(I)cc2S(=O)(=O)N1 (stereo not drawn) [Example 177] | – | 4 nM | 124 nM | 0.023 µM | – | 0.195 µM | 8.21 µM | 64 nM | 6.25 µM | 1030 nM | 1.18 µM
3 | Cn1nc(-c2ccccc2CCNC(=O)C2=Nc3ccc(Cl)cc3S(=O)(=O)N2)oc1=O [Example 193] | – | 493 nM | 1940 nM | 4.17 µM | – | 9.08 µM | – | – | – | 31200 nM | > 40 µM
4 | O=C(NCC1(c2ccccn2)CCCCC1)C1=Nc2ccc(Cl)cc2S(=O)(=O)N1 [Example 197] | – | 290 nM | 7530 nM | 23.6 µM | 0.78 µM | 3.04 µM | – | – | – | – | –
5 | O=C(NCC1(c2ccccn2)CCCC1)C1=Nc2ccc(Cl)cc2S(=O)(=O)N1 [Example 198] | – | 351 nM | 8370 nM | 42.3 µM | 1.38 µM | 5.2 µM | – | – | – | – | –
6 | O=C(NCC(CO)C1CCCCC1)C1=Nc2ccc(Cl)cc2S(=O)(=O)N1 (stereo not drawn) [Example 199] | – | 838 nM | 6570 nM | 15.6 µM | 6.17 µM | 10 µM | – | – | – | – | –
7 | O=C(NCCC1CCCCC1)C1=Nc2ccc(Cl)cc2S(=O)(=O)N1 [Example 202] | – | 1040 nM | > 125000 nM | > 125 µM | > 125 µM | > 10 µM | – | – | – | – | –

Second part, the compound after the results:

Row | IC50 (TIP60-KAT5 [1]) | IC50 (MOZ-KAT6A) | IC50 (HBO-KAT7 [2]) | IC50 (TIP60-KAT5 [3]) | IC50 (QKF-KAT6B) | IC50 [4] | IC50 (MOF-KAT8 [5]) | IC50 (HBO-KAT7 [6]) | IC50 (MOF-KAT8 [7]) | IC50 [8] | IC50 [9] | Structure (SMILES)
8 | – | 371 nM | 295 nM | 3.2 µM | 4.05 µM | 5.09 µM | 16.3 µM | – | – | – | – | COc1cc(C)cc(C(CNC(=O)C2=Nc3ccc(Cl)cc3S(=O)(=O)N2)c2ncco2)c1 (stereo not drawn) [Example 159, 7-chloro-N-(2-(3-methoxy-5-methylphenyl)-2-(oxazol-2-yl)ethyl)-2H-benzo[e][1,2,4]thiadiazine-3-carboxamide 1,1-dioxide]
9 | – | 13 nM | 478 nM | 0.311 µM | – | 0.154 µM | 30.2 µM | 162 nM | 29.3 µM | 1840 nM | 11.9 µM | O=C(NCC(F)(c1ccccc1)c1ncco1)C1=Nc2ccc(Cl)cc2S(=O)(=O)N1 (stereo not drawn) [Example 175]
10 | – | 76 nM | 869 nM | 5.11 µM | – | – | 30.2 µM | 207 nM | 92.9 µM | 4430 nM | 15.4 µM | COc1cccc(C(CNC(=O)C2=Nc3ccc(Cl)cc3S(=O)(=O)N2)c2ncco2)c1 (stereo not drawn) [Example 176, 7-chloro-N-(2-(3-methoxyphenyl)-2-(oxazol-2-yl)ethyl)-2H-benzo[e][1,2,4]thiadiazine-3-carboxamide 1,1-dioxide]
11 | – | 24 nM | 1960 nM | 0.734 µM | – | > 10 µM | – | – | 71.5 µM | > 40000 nM | > 40 µM | O=C(NCC(c1ccccc1)c1n[nH]c(=O)o1)C1=Nc2ccc(I)cc2S(=O)(=O)N1 (stereo not drawn) [Example 186]
12 | – | 28 nM | 152 nM | 0.506 µM | – | – | 58.6 µM | 63 nM | 64.3 µM | 14100 nM | 15.9 µM | O=C(NCC(c1cccc(O)c1)c1ncco1)C1=Nc2ccc(Cl)cc2S(=O)(=O)N1 (stereo not drawn) [Example 216, 7-Chloro-N-(2-(3-hydroxyphenyl)-2-(oxazol-2-yl)ethyl)-2H-benzo[e][1,2,4]thiadiazine-3-carboxamide 1,1-dioxide]
13 | – | 131 nM | 23 nM | 0.149 µM | – | 7.15 µM | – | – | – | 437 nM | 1.28 µM | Cc1cc(O)cc(C(CNC(=O)C2=Nc3ccc(I)cc3S(=O)(=O)N2)c2ncco2)c1 (stereo not drawn) [Example 222, N-(2-(3-Hydroxy-5-methylphenyl)-2-(oxazol-2-yl)ethyl)-7-iodo-2H-benzo[e][1,2,4]thiadiazine-3-carboxamide 1,1-dioxide]
14 | – | 10 nM | 121 nM | 0.163 µM | – | – | 15.3 µM | – | 6.35 µM | 498 nM | 3.41 µM | Cc1ccccc1C(CNC(=O)C1=Nc2ccc(I)cc2S(=O)(=O)N1)c1ncco1 (stereo not drawn) [Example 237, 7-iodo-N-(2-(oxazol-2-yl)-2-(o-tolyl)ethyl)-2H-benzo[e][1,2,4]thiadiazine-3-carboxamide 1,1-dioxide]
